Assay results: patent publication US7070917B1, “Determination of sperm concentration and viability for artificial insemination” (priority 2000, dated 2006)

What was measured:
sperm cells = experiment: Toxicity of SYBR-14 staining to sperm cells (decrease in live sperm cells over time); format: cell-based
bull sperm = experiment: Flow cytometric (FACSCount) determination of sperm viability over staining time in bull ejaculates; format: cell-based; conditions: FACSCount blue laser (488 nm); SYBR-14 50 nM with PI 12 μM; replicates at 4 and 6 min staining, room temperature
Description: A two-step dilution is necessary for the flow cytometric analyses. First, the sample is diluted 250× in a PBS medium containing 0.1% BSA, (NUNC Intermed Cat# 3478880, Lifetechnologies, Roskilde, Denmark), and second a 20 μl sample is transferred to a Sperm Count tube containing approximately 100,000 beads using reverse manual pipetting. The dyes were added to the Sperm Count tubes less than 12 hours before using the tubes in the analysing procedure. As mentioned above, two different flow cytometers were used, one being a FACSCount equipped with a green (543 nm) laser and the second being a FACSCount equipped with a blue (488 nm) laser.
To each Sperm Count tube to be analysed in the first FACSCount (543 nm), 2 μl of MPR71292 and 2 μl of EHD-2 were added to provide final concentrations of 100 nM and 5 μM, respectively.
To each Sperm Count tube to be analysed in the second FACSCount (488 nm), 5 μl of SYBR-14 and 5 μl of PI were added to provide for final concentrations of 50 nM and 12 μM, respectively.
Prior to opening the Sperm Count tubes, the tubes were whirlmixed for 3 sec in an upside-down position and for 3 sec in a normal position. Whirlmixing were repeated for two sec after addition of the sperm and before each analysis. […] After 4 min, the first replicates were analysed simultaneously on the two flow cytometers and the second replicates were analysed after a 6 min staining period. […]

## SYBR-14
Sperm cells; SYBR-14 below standard concentrations (25 to 75 nanomolar, about 50 nanomolar)
  decrease in the amount of live sperm cells: no decrease
Sperm cells; SYBR-14 concentration of 100 nM
  decrease in the amount of live sperm cells: 0.6 % pr minute
Sperm cells; standard concentrations (100 nM), staining time 10 to 15 minutes
  toxicity to spermatozoa: slightly toxic
Bull sperm
  decrease in sperm viability over time: −0.15±0.07 %/min
